Here are results for four molecules from patent publication US9669003B2, “Use of flavone and flavanone derivatives in preparation of sedative and hypnotic drugs” (priority 2012, dated 2017).

Marks after values point to notes of the source that are not given here.

Holding throughout (format): in vivo
The test system of experiment [1] is Kunming mice. In words: Influence on hypnosis effect with pentobarbital sodium doses below the threshold (25 mg/kg i.p.). Conditions: pentobarbital sodium 25 mg/kg i.p. 60 min later, sleep observed in 30 min, n = 10. An excerpt:
(§1) 1.1 Animals for experiments: Kunming mice, weighting 18.9˜22.2 g for females, and 20.2˜23.0 g for males, licensed under SCXK-(Ji) 2007-0003, and provided by The experimental animal centre, Jilin University.
(§2) 1.2 Chemicals for experiments: The flavone derivatives provided in Examples 1-41 and the flavanone derivatives provided in Examples 42-71 are all formulated with 0.5% sodium carboxymethyl cellulose as solutions with required concentrations.
(§3) 1.3 Grouping of animals: 6420 animals are employed in the entire experiments and 2140 of the animals are randomly divided into 214 groups by gender, and the […] include: control group, low dosage group for each experimental drugs (25 mg/kg), medium dosage group for each experimental drugs (50 mg/kg), and high dosage group for each experimental drugs (100 mg/kg). Each group has 10 animals and either female or male constitutes half of the group. The groups are used in behavior observation and voluntary action observation. The other 4280 animals are randomly divided into 214 groups by gender respectively (the grouping way is the same with that described above). Each group has 20 animals and either female or male constitutes half of the group. In each group, 10 animals are used in hypnosis experimentations with pentobarbital sodium doses below the threshold, and the other 10 animals are used hypnosis experimentations with pentobarbital sodium doses at the threshold.
1.5.3 Influence on Hypnosis Effect with Mice Pentobarbital Sodium Doses Below the Threshold
The drug is intragastric administered in mice for single time, 2 animals of each group are given drug per round with the dosing interval of 40 min (±5 min). According to the administration round, in 60 min (±5 min) of each round after the drug administration, the animals were intraperitoneally injected 0.3% sodium pentobarbital 25 mg/kg, respectively. Sleep condition of the animals were observed within 30 min (under sleep determination standard of loss of righting reflex more than 1 min). After animals undergo loss of righting reflex, number of the animals is recorded, to calculate sleep percentage.
(§4) Number of autonomic activities is detected by leneve Test for homogeneity of variance. If the homogeneity of variance is good (P>0.05), statistical analysis is performed with ANOVA. If ANOVA have statistical significance (P≦0.05), Dunnett's test for multiple comparisons analysis is performed. Number of animals of sleeping mice is applied of ANOVA. Incidence rate of animal asleep is applied of χ2 test. Sleep latency and sleep duration are recorded in min, averaged by group, represented by standard deviation, and undergo statistical analysis using ANOVA.

Experiment [2] relates to Kunming mice. In words: Influence on autonomic activity of normal mice (ZIL-2 mice autonomic activity meter, counts within 10 min). Conditions: intragastric, x ± s; for Times of activities in 1 h after drug administration/10 min: 1 h after administration; for Times of activities in 2 h after drug administration/10 min: 2 h after administration; for Times of activities in 24 h after drug administration/10 min: 24 h after administration.
Description: as §1, §2, §3
1.4 Experimental instrument and agents: ZIL-2 mice autonomic activity meter, production of Institute of Materia Medica of Chinese Academy of Medical Sciences; pentobarbital sodium, Lot: 100808, 25 g/bottle, Beijing Chemical Reagent Company equipment imported from Germany.
1.5.2 Influence on Autonomic Activity of Normal Mice
After observing the general behavior, in 1 h, 2 h and 24 h after drug administration, respectively, ZIL-2 mice autonomic activity meter is put respectively. Number of autonomic activities of each group of mice is measured within 10 min. Results among groups are compared.
as §4

The subject of experiment [3] is Kunming mice. The experiment is described as follows: Influence on hypnosis effect with pentobarbital sodium doses at the threshold (50 mg/kg i.p.). To be noted: pentobarbital sodium 50 mg/kg i.p. 60 min later, x ± s, n = 10.
Description: as §1, §2, §3
1.5.4 Influence on Hypnosis Effect with Mice Pentobarbital Sodium Doses at the Threshold
The drug is intragastric administered in mice for single time, 2 animals of each group are given drug per round with the dosing interval of 40 min (±5 min). According to the administration round, in 60 min (±5 min) of each round after the drug administration, the animals were intraperitoneally injected 0.3% sodium pentobarbital 50 mg/kg, respectively. Time to fall asleep (sleep latency) and sleep duration of the animals were recorded within under sleep determination standard of loss of righting reflex more than 1 min.
as §4

The mark [4] stands for this setting: test drug 25 mg/kg intragastric single dose.
Where [5] appears, read: test drug 50 mg/kg intragastric single dose.
The mark [6] stands for this setting: test drug 100 mg/kg intragastric single dose.
[7] abbreviates: 25 mg/kg intragastric single dose.
Where [8] appears, read: 50 mg/kg intragastric single dose.
[9] abbreviates: 100 mg/kg intragastric single dose.

Take `COc1cc(OC)c2c(=O)cc(-c3ccc(OC)c(O)c3)oc2c1` [Example 4, 3′-hydroxyl-5,7,4′-trimethoxyl-flavone]: the “Number of sleeping animals” value in the experiment on Kunming mice [1] (setting [4]) is reported as 6; in the experiment on Kunming mice [1] (setting [5]), 7; with Kunming mice [1] (setting [6]) it was 8. Also, the “rate of sleeping (%)” value with Kunming mice [1] (setting [4]) is 60** %; in the experiment with Kunming mice [1] (setting [5]), 70** %; with Kunming mice [1] (setting [6]), 80*** %. Further, the “Times of activities in 1 h after drug administration/10 min” value (shortened to “Times of activities in 1 h”) in the experiment on Kunming mice [2] (25 mg/kg, n = 10) is 258.2 ± 44.2 /10 min; in the experiment with Kunming mice [2] (50 mg/kg, n = 10) it was 219.3 ± 42.7 /10 min; in the experiment with Kunming mice [2] (100 mg/kg, n = 10) it was 124.2 ± 49.1 /10 min. Further, the “Times of activities in 2 h after drug administration/10 min” value (“Times of activities in 2 h” below) in the experiment with Kunming mice [2] (25 mg/kg, n = 10) was 250.3 ± 53.9 /10 min; in the experiment with Kunming mice [2] (50 mg/kg, n = 10), 223.5 ± 41.3 /10 min; with Kunming mice [2] (100 mg/kg, n = 10) it was 127.2 ± 41.9 /10 min. For the same molecule, the “Times of activities in 24 h after drug administration/10 min” value (from here on “Times of activities in 24 h”) with Kunming mice [2] (25 mg/kg, n = 10) is 309.1 ± 76.1 /10 min; with Kunming mice [2] (50 mg/kg, n = 10), 318.4 ± 96.3 /10 min; with Kunming mice [2] (100 mg/kg, n = 10), 303.2 ± 90.1 /10 min. Also, the duration of sleep in the experiment on Kunming mice [3] (setting [7]) was determined as 63.65 ± 19.54 min; with Kunming mice [3] (setting [8]), 69.91 ± 19.82 min; with Kunming mice [3] (setting [9]) it was 81.66 ± 30.31 min. Moreover, the time to sleep with Kunming mice [3] (setting [7]) is 3.75 ± 1.81 min; with Kunming mice [3] (setting [8]) it was 3.41 ± 1.69 min; in the experiment with Kunming mice [3] (setting [9]), 2.51 ± 1.61 min.
Regarding `COc1ccc(-c2cc(=O)c3c(OC)cc(O)cc3o2)cc1OC` [Example 5, 7-hydroxyl-5,3′,4′-trimethoxyl-flavone], the “Number of sleeping animals” value in the experiment with Kunming mice [1] (setting [4]) amounted to 6; with Kunming mice [1] (setting [5]), 8; in the experiment on Kunming mice [1] (setting [6]), 9. The “rate of sleeping (%)” value in the experiment on Kunming mice [1] (setting [4]) was 60** %; in the experiment with Kunming mice [1] (setting [5]), 80*** %; in the experiment with Kunming mice [1] (setting [6]), 90*** %. Moreover, the “Times of activities in 1 h” value with Kunming mice [2] (25 mg/kg, n = 10) is given as 265.2 ± 50.1 /10 min; in the experiment on Kunming mice [2] (50 mg/kg, n = 10) it was 175.4 ± 50.3 /10 min; in the experiment with Kunming mice [2] (100 mg/kg, n = 10), 120.2 ± 39.0 /10 min. Also, the “Times of activities in 2 h” value in the experiment with Kunming mice [2] (25 mg/kg, n = 10) is 243.2 ± 42.8 /10 min; in the experiment with Kunming mice [2] (50 mg/kg, n = 10), 190.2 ± 56.8 /10 min; in the experiment on Kunming mice [2] (100 mg/kg, n = 10) it was 116.3 ± 49.2 /10 min. Moreover, the “Times of activities in 24 h” value is reported as 292.8 ± 82.1 /10 min in the experiment with Kunming mice [2] (25 mg/kg, n = 10); 295.3 ± 91.3 /10 min in the experiment with Kunming mice [2] (50 mg/kg, n = 10); 283.5 ± 94.0 /10 min in the experiment with Kunming mice [2] (100 mg/kg, n = 10). Moreover, the values for the duration of sleep in the experiment on Kunming mice [3] (setting [7]), with Kunming mice [3] (setting [8]) and in the experiment on Kunming mice [3] (setting [9]) were 59.92 ± 17.44 min, 74.82 ± 22.78 min and 89.01 ± 18.25 min, respectively. In addition, the time to sleep in the experiment with Kunming mice [3] (setting [7]) turned out to be 3.39 ± 1.71 min; in the experiment with Kunming mice [3] (setting [8]), 3.26 ± 1.47 min; with Kunming mice [3] (setting [9]), 2.23 ± 1.19 min.
Regarding `COc1cc(OC)c2c(=O)cc(-c3ccc(OC)c(OC)c3)oc2c1` [Example 7, 5,7,3′,4′-tetramethoxyl-flavone], the “Number of sleeping animals” value amounted to 5 in the experiment with Kunming mice [1] (setting [4]), 6 with Kunming mice [1] (setting [5]) and 9 with Kunming mice [1] (setting [6]). For the same molecule, the “rate of sleeping (%)” value with Kunming mice [1] (setting [4]) is recorded as 50** %; in the experiment with Kunming mice [1] (setting [5]) it was 60** %; with Kunming mice [1] (setting [6]) it was 90*** %. Besides, the “Times of activities in 1 h” value with Kunming mice [2] (25 mg/kg, n = 10, 25 mg/kg) is on record as 248.5 ± 55.1 /10 min; in the experiment on Kunming mice [2] (50 mg/kg, n = 10, 50 mg/kg) it was 184.7 ± 52.6 /10 min; in the experiment on Kunming mice [2] (100 mg/kg, n = 10, 100 mg/kg) it was 125.2 ± 44.5 /10 min. Moreover, the “Times of activities in 2 h” value was 234.1 ± 45.8 /10 min with Kunming mice [2] (25 mg/kg, n = 10, 25 mg/kg); 164.4 ± 45.8 /10 min with Kunming mice [2] (50 mg/kg, n = 10, 50 mg/kg); 122.2 ± 48.6 /10 min in the experiment with Kunming mice [2] (100 mg/kg, n = 10, 100 mg/kg). For the same molecule, the “Times of activities in 24 h” value is on record as 303.4 ± 75.8 /10 min in the experiment with Kunming mice [2] (25 mg/kg, n = 10, 25 mg/kg); 318.5 ± 83.6 /10 min with Kunming mice [2] (50 mg/kg, n = 10, 50 mg/kg); 329.8 ± 53.2 /10 min in the experiment on Kunming mice [2] (100 mg/kg, n = 10, 100 mg/kg). For the same molecule, the duration of sleep turned out to be 61.21 ± 22.82 min with Kunming mice [3] (setting [7]), 79.27 ± 21.17 min in the experiment on Kunming mice [3] (setting [8]) and 87.43 ± 21.56 min with Kunming mice [3] (setting [9]). The time to sleep in the experiment with Kunming mice [3] (setting [7]) came out at 3.25 ± 1.93 min; in the experiment on Kunming mice [3] (setting [8]), 3.03 ± 1.41 min; with Kunming mice [3] (setting [9]), 2.32 ± 1.21 min.
Turning to `COc1ccc(-c2cc(=O)c3c(OC)c(OC)c(OC)c(OC)c3o2)cc1` [Example 8, 5,6,7,8,4′-penta methoxyl-flavone], the entries for the “Number of sleeping animals” value with Kunming mice [1] (setting [4]), with Kunming mice [1] (setting [5]) and with Kunming mice [1] (setting [6]) were 5, 6 and 8, respectively. Besides, the “rate of sleeping (%)” value in the experiment on Kunming mice [1] (setting [4]) is given as 50** %; with Kunming mice [1] (setting [5]), 60** %; in the experiment on Kunming mice [1] (setting [6]), 80*** %. For the same molecule, the “Times of activities in 1 h” value was 301.3 ± 43.5 /10 min with Kunming mice [2] (25 mg/kg, n = 10); 262.1 ± 55.5 /10 min with Kunming mice [2] (50 mg/kg, n = 10); 185.7 ± 41.6 /10 min in the experiment on Kunming mice [2] (100 mg/kg, n = 10). The “Times of activities in 2 h” value is 290.2 ± 39.6 /10 min in the experiment with Kunming mice [2] (25 mg/kg, n = 10); 244.7 ± 53.9 /10 min in the experiment on Kunming mice [2] (50 mg/kg, n = 10); 167.2 ± 48.5 /10 min in the experiment with Kunming mice [2] (100 mg/kg, n = 10). Further, the “Times of activities in 24 h” value in the experiment on Kunming mice [2] (25 mg/kg, n = 10) was 286.4 ± 75.2 /10 min; in the experiment on Kunming mice [2] (50 mg/kg, n = 10), 299.8 ± 76.4 /10 min; with Kunming mice [2] (100 mg/kg, n = 10), 280.4 ± 84.2 /10 min. For the same molecule, the duration of sleep with Kunming mice [3] (setting [7]) was found to be 21.52 ± 16.93 min; with Kunming mice [3] (setting [8]), 29.13 ± 26.44 min; in the experiment with Kunming mice [3] (setting [9]), 66.82 ± 33.63 min. Also, the time to sleep with Kunming mice [3] (setting [7]) is recorded as 5.40 ± 1.83 min; with Kunming mice [3] (setting [8]) it was 5.05 ± 1.73 min; with Kunming mice [3] (setting [9]), 3.21 ± 1.32 min.
